Laboratory results: article PMC7948405, “Small-molecule control of neurotransmitter sulfonation” (The Journal of Biological Chemistry, 2020)

Molecular target: T1, SULT1A3 (Homo sapiens, UniProt P0DMM9)
T1 construct: E. coli–optimized SULT coding regions were inserted into a pGEX-6P expression vector; N-His/GST/MBP triple tag (PreScission-cleavable) (N, cleaved yes); made in house; host or cells: E. coli BL21(DE3)
Test: Pre-steady-state (stopped-flow fluorescence) binding of PAP to SULT1A3 complexes
Conditions: E·CMP13 vs E
Description: Figure 4 The inhibition mechanism. A, equilibrium binding. Binding was monitored via ligand-induced changes in SULT1A3 intrinsic fluorescence (λex = 290 nm, λem = 335 nm). […] Each dot represents the average of three independent titrations. Lines passing through the data represent the outcomes predicted by least-squares fitting of the averaged data to a single-binding-site model. B, representative PAP-binding reaction. PAP binding was monitored using a stopped-flow fluorimeter (λex = 290 nm, λem ≥ 330 nm (cutoff filter)). Reactions were initiated by rapidly mixing (1:1 v/v) a solution containing SULT1A3 (30 nM, dimer), CMP13 (1.0 μM, 100 × Kd), Tam (160 μM, 200 × Kd), KPO4 (50 mM), pH 7.5, 25(±2) °C, with a solution that was identical except that it lacked SULT1A3 and contained PAP (2.0 μM). The average of five independent progress curves shown and the kobs was obtained by fitting the data to a single exponential. C, pre–steady-state binding. PAP binding was monitored as described for panel B. Reactions were initiated by mixing (1:1 v/v) a solution containing SULT1A3 (30 nM, dimer), CMP13 [0 μM (black dots) or 1.0 μM, 100 × Kd (red and blue dots)], Tam [0 μM (black and blue dots) or 160 μM, 200 × Kd (red dots)], KPO4 (50 mM), pH 7.5, 25(±2) °C, with a solution that was identical except that it lacked SULT1A3 and contained PAP at twice the indicated concentrations. Each kobs value was determined in triplicate, and the averaged values are shown. kon and koff are given, respectively, by the slopes and intercepts obtained from linear least-squares fitting of the kobs vs [PAP] plot. PAP, 3′-phosphoadenosine-5′-phosphate; SULT1A3, sulfotransferase 1A3; Tam, 4-hydroxy-tamoxifen.
To resolve this uncertainty, PAP on- and off-rate constants for a series of open and closed complexes were determined using stopped-flow fluorescence. A representative binding reaction can be seen in Fig. 4B. The binding reactions were pseudo-first order in [PAP], and kobs values were obtained by fitting reaction progress curves to a single-exponential equation. On- and off-rate constants (see Table 3) are given by the plot slopes and intercepts.
Pre–steady-state binding of PAP to SULT1A3 was monitored via ligand-induced changes in SULT1A3 fluorescence using an Applied Photophysics SX20 stopped-flow spectrofluorometer. Fluorescence was measured at λex = 290 nm and λem ≥ 330 nm (using a cutoff filter). […] All reactions were pseudo first order with respect to [PAP]. kobs values, determined in triplicate at each PAP concentration, were obtained by least-squares fitting the average of five progress curves to a single-exponential equation. kon and koff, obtained by linear least-squares fitting, are given by the slopes and intercepts of four-point kobs-vs-[PAP] plots.

T1 sequence (P0DMM9 whole entry): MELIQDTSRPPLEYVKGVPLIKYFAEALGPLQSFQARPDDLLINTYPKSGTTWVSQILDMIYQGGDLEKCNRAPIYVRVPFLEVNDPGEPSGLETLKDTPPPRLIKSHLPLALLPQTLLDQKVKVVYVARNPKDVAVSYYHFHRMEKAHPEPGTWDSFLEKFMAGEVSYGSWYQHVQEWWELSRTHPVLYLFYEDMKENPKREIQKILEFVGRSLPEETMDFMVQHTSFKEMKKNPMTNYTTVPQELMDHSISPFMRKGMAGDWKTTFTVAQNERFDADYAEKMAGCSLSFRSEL

CC(C)Cc1ccc2cc(/C=C/C(N)=O)cnc2n1 [CMP13]
fold decrease of the PAP off-rate constant caused by inhibitor: ~14 fold
